Test results from the OligoGym collection.
Values joined by “and” are separate entries in the source; they are usually repeats but may differ in a detail not shown here. Identical values can stand only once. After the bases stand the sugars from the 5' end (letter, count) and the backbone: PS all phosphorothioate, else s phosphorothioate and o phosphodiester by linkage. Methylation of C is not given here. e = 2'-O-(2-methoxyethyl) (MOE); k = constrained ethyl (cEt); d = 2'-deoxy (DNA)

Molecular target: MALAT1
Conditions: ASO, A431, 0.005 µM

Sequence | target mRNA inhibition
TATCTTCACCACGAAC (sugars k3 d10 k3, PS) | 0%
ATACTTCATTACCCCA (sugars k3 d10 k3, PS) | 50%
GGAAATTTTTCTACCG (sugars k3 d10 k3, PS) | 8%
GGAAAAGTGGTTGCCC (sugars k3 d10 k3, PS) | 24%
ACGCAACTGAGCCCCA (sugars k3 d10 k3, PS) | -44%
TCCAGGACTTGGCAGT (sugars k3 d10 k3, PS) | 23%
TTATAGCTTGACAAGC (sugars k3 d10 k3, PS) | 37%
TCTAATAGCAGCGGGA (sugars k3 d10 k3, PS) | 16%
TTGCCCCAACACTGAA (sugars k3 d10 k3, PS) | 7%
GTTACGAAAGTCCTTC (sugars k3 d10 k3, PS) | 45%
ATTTAACTTCCCCCAG (sugars k3 d10 k3, PS) | 18%
AGATTAGTAGTCAAAG (sugars k3 d10 k3, PS) | -12%
CTTTAGGATTCTAGAC (sugars k3 d10 k3, PS) | 7%
TCCTGATCTGGTCCAT (sugars k3 d10 k3, PS) | 42%
CTACTATTTCTCCAGG (sugars k3 d10 k3, PS) | 41%
ATCTGCGGTTTCCTCA (sugars k3 d10 k3, PS) | 58%
TGTTAAGAGAAGCCCA (sugars k3 d10 k3, PS) | 2%
GTTATATTAGGTTCTC (sugars k3 d10 k3, PS) | 7%
CGTAAACACCCTCATC (sugars k3 d10 k3, PS) | 32%
CTGAGAAAACAATACG (sugars k3 d10 k3, PS) | 8%
CTGGATAAGTATTATA (sugars k3 d10 k3, PS) | 28%
AGTCCCTGAAGGTGTT (sugars k3 d10 k3, PS) | 28%
GAAAGATTTGAGCTGC (sugars k3 d10 k3, PS) | -10%

Sequence | target mRNA inhibition
GGCTCGATGGAAAAAT (sugars k3 d10 k3, PS) | 33%
ATCGCCTTCAAATTAT (sugars k3 d10 k3, PS) | 60% and 76%
CTCACAAGGCAAATCG (sugars k3 d10 k3, PS) | -12%
TAAGAGACATTCAAGC (sugars k3 d10 k3, PS) | 17%
ACTGAACTGTTTAAAC (sugars k3 d10 k3, PS) | 6%
CAAGGATCCAAGCTAC (sugars k3 d10 k3, PS) | 19%
TCGATGGAAAAATTTC (sugars k3 d10 k3, PS) | 30%
GAAAACTCCCCCCCGC (sugars k3 d10 k3, PS) | -4%
ATCATTGGGAGTTACT (sugars k3 d10 k3, PS) | 54%
CCTCACAAAACCCCCG (sugars k3 d10 k3, PS) | -13%
CTGTTACACCTTGAGT (sugars k3 d10 k3, PS) | 33%
GCTAAGATAGCAGCAC (sugars k3 d10 k3, PS) | 29%
GCAGGCAAATTAATGG (sugars k3 d10 k3, PS) | 45%
AAGCATTGCCCTTCTA (sugars k3 d10 k3, PS) | 46%
TCCTTCGGATGCTTCA (sugars k3 d10 k3, PS) | 56%
TCACCTTCGGTTTAAT (sugars k3 d10 k3, PS) | 28%
TCCTGCGACTTGCTCC (sugars k3 d10 k3, PS) | 15%
GCCTCTATTGCCATGT (sugars k3 d10 k3, PS) | 30%
GCCAACACAGTTTGCT (sugars k3 d10 k3, PS) | 30%
CAGTAGGTATAGTTTA (sugars k3 d10 k3, PS) | -17%
GCAGGCTATTACCTGA (sugars k3 d10 k3, PS) | 19%
CCTGCCTTAAAGTTAC (sugars k3 d10 k3, PS) | 20%
TGACAAGCAATTAACT (sugars k3 d10 k3, PS) | 28%

Sequence | target mRNA inhibition
ACCTAAACCCACCCCA (sugars k3 d10 k3, PS) | -1%
ATGTTAAGAGAAGCCC (sugars k3 d10 k3, PS) | -17%
AATCATACTCCAGTCG (sugars k3 d10 k3, PS) | 35%
TCAAGCATTCCTTCGG (sugars k3 d10 k3, PS) | 73% and 67%
TGAACTATCACAATTC (sugars k3 d10 k3, PS) | 24%
TTTAAAAGATCGCCTT (sugars k3 d10 k3, PS) | 50%
AGCTACTGGCTGCATC (sugars k3 d10 k3, PS) | 20%
AGAGCTACTTAGCTGT (sugars k3 d10 k3, PS) | 16%
TATTCCTTTCATAGAG (sugars k3 d10 k3, PS) | 11%
CCCAACCGTAACAGGC (sugars k3 d10 k3, PS) | 22%
CCACTTGCCAGTTTAA (sugars k3 d10 k3, PS) | 29%
TCTGCGGTTTCCTCAA (sugars k3 d10 k3, PS) | 49%
CCGAAGACACAGAGAC (sugars k3 d10 k3, PS) | 2%
AAATTACACCAGTCCT (sugars k3 d10 k3, PS) | 45%
CCAACCCCCAGTTCAA (sugars k3 d10 k3, PS) | 24%
TTATCAATTCACCAAG (sugars k3 d10 k3, PS) | 25%
TCGGATGCTTCACTCC (sugars k3 d10 k3, PS) | 37%
GCATACCTTAACATCT (sugars k3 d10 k3, PS) | 54% and 44%
GGACAGTAGGTATAGT (sugars k3 d10 k3, PS) | 11%
TAACATGCAATACTGC (sugars k3 d10 k3, PS) | 18%
CAACCTCCGTCATGTT (sugars k3 d10 k3, PS) | 35%
GTTAACATGCAAACTT (sugars k3 d10 k3, PS) | 13%
GCCCTTCTATTGGTAT (sugars k3 d10 k3, PS) | -3%

Sequence | target mRNA inhibition
GGACTCTTTTCCTATC (sugars k3 d10 k3, PS) | -4%
TACAAAACGAATTCAG (sugars k3 d10 k3, PS) | 20%
GACAAGATTCATGAGT (sugars k3 d10 k3, PS) | 47%
CGGGCTGCAGGCTGCG (sugars k3 d10 k3, PS) | 14%
AAATGGCGGACTTTCT (sugars k3 d10 k3, PS) | 17%
TCTAAAAGCATTGCCC (sugars k3 d10 k3, PS) | 29%
TTGTTCGAGAAATCGG (sugars k3 d10 k3, PS) | 5%
GATTCACTGAATCCAC (sugars k3 d10 k3, PS) | 8%
ATAGCAGCGGGATCAG (sugars k3 d10 k3, PS) | 57%
ATCTAGGCCATCATAC (sugars k3 d10 k3, PS) | 32%
TCTCAGGGTTATGCTT (sugars k3 d10 k3, PS) | 59% and 81%
CATGACCCTACTGAAG (sugars k3 d10 k3, PS) | 2%
CCGTCATGTTTTAGAA (sugars k3 d10 k3, PS) | 58% and 61%
GTAACTACCAGCCATT (sugars k3 d10 k3, PS) | 45%
TGGCCCTTCGCATACG (sugars k3 d10 k3, PS) | 28%
TATATTTAAGGCCTTC (sugars k3 d10 k3, PS) | 45%
TCAGGGTTATGCTTAT (sugars k3 d10 k3, PS) | 64% and 59%
TTGCTCGCTTGCTCCT (sugars k3 d10 k3, PS) | 40%
GTTTAAGTCACCTTCA (sugars k3 d10 k3, PS) | 63% and 38%
GTCCTTTACAGAAGTC (sugars k3 d10 k3, PS) | 35%
GGGCTTTACTTTCCAT (sugars k3 d10 k3, PS) | 16%
CAACACTCAGCCTTTA (sugars k3 d10 k3, PS) | -1%
CTTCCCTATATAAGGT (sugars k3 d10 k3, PS) | 10%

Sequence | target mRNA inhibition
TAGGCCATCATACTGC (sugars k3 d10 k3, PS) | 6%
AACCACAACAATTTAG (sugars k3 d10 k3, PS) | 16%
CACAAGGCAAATCGCC (sugars k3 d10 k3, PS) | 20%
CCAGTCTACAAGTTAC (sugars k3 d10 k3, PS) | 50% and 56%
TTTCCCCAATCAAGAT (sugars k3 d10 k3, PS) | -4%
ATGGAGGTATGACATATAAT (sugars e5 d10 e5, PS) | 22% and 25%
TCTTACTTGATAATAC (sugars k3 d10 k3, PS) | 10%
TTGAGATGGACATTGC (sugars k3 d10 k3, PS) | 87% and 72%
GGTCATCTATTCACAA (sugars k3 d10 k3, PS) | 29%
CACTGGATAAGTATTA (sugars k3 d10 k3, PS) | 40%
TAGGTATAGTTTACCA (sugars k3 d10 k3, PS) | 2%
GATTCCGTAACTTTAA (sugars k3 d10 k3, PS) | 69% and 90%
CAGACCAACCCCCAGT (sugars k3 d10 k3, PS) | -7%
GTTACCTTGAAACCGA (sugars k3 d10 k3, PS) | 47%
CTAACATGCAATACTG (sugars k3 d10 k3, PS) | 1%
ATTGGGAGTTACTTGC (sugars k3 d10 k3, PS) | 63% and 85%
TTCAACTGGAAGCTCC (sugars k3 d10 k3, PS) | 58% and 57%
CTGTCTAAGAGGTTAT (sugars k3 d10 k3, PS) | 7%
CAGAAGTCTCGGGCTG (sugars k3 d10 k3, PS) | 19%
ATCTCCCACCTGTCTA (sugars k3 d10 k3, PS) | 45%
ATTACTTCCGTTACGA (sugars k3 d10 k3, PS) | 43%
CCTTCCGCCGCCTTTG (sugars k3 d10 k3, PS) | 21%
